Measurements from US20200077655A1, “Use of an Acyclic Picolinamide Compound as a Fungicide for Control of Phytopathogenic Fungi in Orchard, Vineyard and Plantation Crops” (Dow AgroSciences LLC, priority 2017, published 2020).

System: Monilinia fructicola (MONIFC)
Assay: Field microplot assessment on brown rot on apricots
Type: in vivo
Details: field grown apricots
Source text: A field trial assessing the utility of Compound I on rot diseases of stone fruits was done using apricots in a microplot method, part of an experimental trial designed as a randomized complete block with four replications. In a microplot method, two mature fruits on a single branch or cluster of fruits were selected for each replication (for a total of 10 replications) instead of using an entire replication. Colored flagging identified treatments. Fungicidal treatments containing Compound I, applied in a 5% EC formulation and tank mixed with an adjuvant (Trycol, 50% w/w at 0.2% v/v), were sprayed on apricots (PRNAR) at rates of 50, 100, and 150 grams of active ingredient per hectare (g ai/ha). The applications to the selected mature apricots were done at 7 days before harvest using a hand held manual spray bottle at a water volume of 500 L/ha. One day after application, a ZipLoc plastic bag was placed over the fruit or fruit cluster and an inoculation mix of MONIFC (Rhizopus was from natural population present in the orchard) was sprayed inside covering the fruits. The plastic bags were removed after 24 hours. At harvest, the fruits were collected in the field and placed in plastic Tupperware containers. 150 mL of de-ionized water was poured in the bottom of the Tupperware containers and the fruits were sprayed with a light mist of water. The containers were brought to the lab, enclosed in a large trash bag to keep the humidity high, and incubated on a lab bench at approximately 23° C. Visual disease incidence was assessed during the trial at 9 and 16 days after application. Area under the disease progress curve (AUDPC) was calculated for each plot using the sets of recorded incidence data. Relative AUDPC (% control based on AUDPC) was calculated as percent of the nontreated control.

Measured: Percent control (AUDPC) from fruit incidence, MONIFC

COc1ccnc(C(=O)N[C@@H](C)C(=O)O[C@@H](C)C(c2ccc(F)cc2)c2ccc(F)cc2)c1OC(C)=O [Compound I, (S)-1,1-bis(4-fluorophenyl)propan-2-yl (3-acetoxy-4-methoxypicolinoyl)-L-alaninate]
B (51-75): 50 g ai/ha | 100 g ai/ha | 150 g ai/ha
